Assay results: patent US20140248358A1, “Therapeutic Nanoparticles Comprising a Therapeutic Agent and Methods of Making and Using Same” (BIND Therapeutics, Inc., priority 2012, published 2014)
Converted amounts (≈) assume the structure as drawn. Counter-ions that a name gives are not always drawn. Like-named read-outs stand apart in the source and are kept apart here.

How the values were obtained:
[1] = Solubility of dasatinib in solvents, quantified using HPLC; type: physicochemical; conditions: for solubility: organic solvent or mixture, read-out: Dasatinib solubility (mg/mL, by HPLC)
Excerpt: The solubility of dasatinib in benzyl alcohol, ethyl acetate, and mixtures of oleic acid and benzyl alcohol were quantified using HPLC.

[2] = cited from earlier work
[3] = Stability of dasatinib in release buffer at 37° C.
[4] = hydrophobic acid; cited from earlier work
[5] = protonatable nitrogen-containing therapeutic agent

Row | Compound | log P [4] | pKa ([2]; hydrophobic acid) | other results
1 | Cc1nc(Nc2ncc(C(=O)Nc3c(C)cccc3Cl)s2)cc(N2CCN(CCO)CC2)n1 [dasatinib] |  |  | solubility ([1]; 3% oleic acid in benzyl alcohol, 3% Oleic Acid in BA): 16.8 mg/mL (≈ 34.5 mM); solubility ([1]; 6% oleic acid in benzyl alcohol, 6% Oleic Acid in BA): 25.2 mg/mL (≈ 51.6 mM); solubility ([1]; 9% oleic acid in benzyl alcohol, 9% Oleic Acid in BA): 29.8 mg/mL (≈ 61.1 mM); improvement of solubility of dasatinib ([1]; benzyl alcohol doped with oleic acid vs benzyl alcohol): 2-3 fold; solubility ([1]; solvent BA (benzyl alcohol)): 9.45 mg/mL (≈ 19.4 mM); solubility ([1]; solvent EA (ethyl acetate)): 0.32 mg/mL (≈ 0.656 mM); pKa [2, 5]: 7.07; stability in release buffer [3]: degraded after 24 hours
2 | CCCCCCCC/C=C\CCCCCCCC(=O)O [oleic acid] | 6.78 | 4-5 | 
3 | CCCCCCCC/C=C\CCCCCCCC(=O)OC[C@H](COP(=O)(O)O)OC(=O)CCCCCCC/C=C\CCCCCCCC [dioleoyl phosphatidic acid] |  | ~2 | 
4 | O=C(O)c1cc2ccccc2c(Cc2c(O)c(C(=O)O)cc3ccccc23)c1O [pamoic acid] |  | 2.4 | 
5 | O=S(=O)(O)c1cccc2c(S(=O)(=O)O)cccc12 [naphthalene-1,5-disulfonic acid] | 1.3 | −2 | 
6 | CCCCCCCCCCCCc1ccc(S(=O)(=O)O)cc1 [dodecylbenzenesulfonic acid] | 6.6 | −1.8 | 
7 | CCCCCCCCCCCCOS(=O)(=O)O [dodecylsulfuric acid] | 4.5 | −0.09 | 
8 | CC[C@]1(O)C[C@H]2CN(CCc3c([nH]c4ccccc34)[C@@](C(=O)OC)(c3cc4c(cc3OC)N(C=O)[C@H]3[C@@](O)(C(=O)OC)[C@H](OC(C)=O)[C@]5(CC)C=CCN6CC[C@]43[C@@H]65)C2)C1 [vincristine, reference compound] |  |  | pKa [2, 5]: 7.08
9 | Cc1ccc(NC(=O)c2ccc(CN3CCN(C)CC3)cc2)cc1Nc1nccc(-c2cccnc2)n1 [imatinib, reference compound] |  |  | pKa [2, 5]: 8.38
10 | C[C@H](CCC(=O)O)[C@H]1CC[C@H]2[C@@H]3CC[C@@H]4C[C@H](O)CC[C@]4(C)[C@H]3C[C@H](O)[C@]12C [deoxycholic acid] | 3.79 | 4.65 | 
11 | CC(C)CCC[C@@H](C)[C@H]1CC[C@H]2[C@@H]3CC=C4C[C@@H](OS(=O)(=O)O)CC[C@]4(C)[C@H]3CC[C@]12C [cholesteryl sulfate] |  | −1.4 | 
12 | O=S(=O)(O)c1ccc2ccccc2c1 [naphthalene-2-sulfonic acid] | 2.1 | −1.8 | 
13 | CCN(CC)CCNC(=O)c1c(C)[nH]c(/C=C2\C(=O)Nc3ccc(F)cc32)c1C [sunitinib, reference compound] |  |  | pKa [2, 5]: 7.07
14 | O=C(O)c1ccc2ccccc2c1O [1-hydroxy-2-naphthoic acid] | 2.97 | 2-3 | 
15 | C=C1CC[C@@H](OS(=O)(=O)O)C/C1=C/C=C1\CCC[C@]2(C)[C@@H]([C@H](C)CCCC(C)C)CC[C@@H]12 [Vitamin D3-sulfate] |  | −1.5 | 
